According to patent US20060135415A1, “Immunomodulation and effect on cell processes relating to serotonin family receptors and the blood-brain barrier” (priority 2002, published 2006):
Entries after “also recorded” stand apart in the source; their conditions may differ.

Assays:
[1] = system: ConA stimulated human lymphocytes; test: Human mitogenic (ConA) stimulation, 3H-thymidine incorporation; format: cell-based; conditions: for activation / proliferative response: 5 μg/ml ConA, harvest 72 hours, drug titration (FIGS. 7A, 8A, 9A, 17, 33)
Procedure: Blood from healthy volunteers was drawn using venipuncture, using Vacutainer collection sets and heparinized collection vials. The blood was diluted 1:1 using HBSS to a total volume of 30 ml in 50 ml conical tubes (Fisher Scientific, Co., Pittsburgh, Pa.). […] Cells from the buffy coats were collected and the residual Histopaque was washed away using repeated centrifugations in HBSS. After washes, cells were resuspended at 5 million cells per ml in RPMI, supplemented with 2% FBS. To remove adherent cells, the suspension was plated onto a 6 well flat-bottom plate (Corning Costar), 3 ml/well, and incubated for 2 hours at 37° C., 5% CO2. Non-adherent cells were harvested after this incubation, were counted and resuspended in RPMI supplemented with 10% human serum (Sigma).
All drugs were pre-plated before the cell suspension was added onto each well of a 96-well round-bottom plate. All experimental conditions were assayed in at least triplicate. Cells suspended in RPMI supplemented with 10% human serum were plated at 100,000 cells per well to a final volume of 200 μl. […] Control samples received no ConA stimulation. The plates were incubated at 37° C. and 5% CO2.

[2] = system: allogeneic stimulation of human lymphocytes; test: Human mixed lymphocyte reaction (allogeneic stimulation), 3H-thymidine; format: cell-based
Excerpt: Blood from two healthy, non-related, donors was taken as described above. Peripheral blood mononuclear cells were isolated as described previously elsewhere. The adherent cells were separated from the suspension cells as described previously for both donors. Suspension cells from both donors (donors A and B) were used as responders. The remaining adherent cells from each of the donors were used as stimulators against a different donor (suspension A against adherent B and adherent A against suspension B). The stimulator cells were irradiated at 35 Gy. Drugs were pre-plated onto 96 well, U-bottom plates in triplicate. 200,000 “stimulator” cells in RPMI supplemented with 10% human serum were then plated in each well. 200,000 “responder” cells in the same medium were then plated over stimulators to a final volume of 200 μl/well. Background controls received either no stimulator cells, or no responder cells. The plates were incubated at 37° C. and 5% CO2. 1 μCi of tritiated thymidine was added to each well after 4.5 days, and the plates were harvested 12 hours later.

[3] = system: RPMI 8226 multiple myeloma cells; test: RPMI 8226 cell viability and proliferation (trypan blue, MTT, 3H-thymidine); format: cell-based, human; conditions: 3H-thymidine uptake, drug titration (FIGS. 19-25, 31, 32)
Procedure: The human plasmacytoma (multiple myeloma) cell line, RPMI 8226 (American Type Culture Collection, Manassas, Va.), was cultured in RPMI 1640 supplemented with 10 mM HEPES, 1 mM sodium pyruvate, 4.5 g/L glucose, 1.5 g/L bicarbonate and 20% FBS (non-heat inactivated).
Cell proliferation was assayed by three methods—Trypan Blue Exclusion was used to quantify the number of viable cells in culture; 3-(4,5-dimethylthiazol-2-yl)-2,5-diphenyl tetrazolium bromide (MTT) reduction was used to assay mitochondrial activity (and thus cell viability); and ^3H-Thymidine uptake was employed to assay for active DNA synthesis.
Three separate indicators of cell proliferation were employed to study the effects of 5-HT receptor modulating agents on the human multiple myeloma cell line, RPMI 8226. Cells were plated at 4 separate densities and were treated with LY53587 (an antagonist of the 5-HT2A/2B/2C receptors) at a range of concentrations. The exclusion of trypan blue dye was used as an indicator of cell viability. Cell numbers were then plotted against the concentration of drug added.
MTT reduction was also used as an indicator of cell viability (more specifically, mitochondrial activity). Absorbance values at OD570 were then plotted against drug concentration. Finally, DNA synthesis was assayed, through the measurement of ^3H-thymidine uptake, and counts per minute (CPMs) were plotted against drug concentration.
Culturing and administration of drugs and ^3H-thymidine were performed as described elsewhere herein.

RPMI 8226 cells [4] = test: DNA fragmentation (internucleosomal laddering); format: cell-based, human; conditions: RPMI 8226 cells (FIGS. 26, 35)
Procedure: Cells (8×10^5) were washed with ice-cold PBS following experimental treatments and pelleted by centrifugation (500×g, 5 min). Cell pellets were incubated for 5 minutes on ice in lysis buffer (1% IGEPAL-CA630, 20 mM EDTA, 50 mM Tris-HCL, pH 7.5). Lysates were centrifuged at about 1,600×g for 5 minutes. 501 μL of lysis buffer was added to the supernatant. The extract was brought to 1% SDS and treated for 2 hours with 5 μg/μL Rnase A (57° C.) followed by treatment with 2.5 μg/μL proteinase K for 2 hours (37° C.). After digestion of RNA and protein, half volume of 10 M ammonium acetate was added and the DNA was precipitated using 2.5 volumes of ethanol, washed in 70% ethanol, air-dried, and dissolved in TE buffer. DNA fragments were separated by electrophoresis in 1.5% agarose gels using a protocol adapted from Siegel et al. (1998, Proc. Natl. Acad. Sci. USA 95:162-166).

RPMI-8226 cells = test: Cytospin histochemistry (H&E, bis-benzamide) for chromatin; format: cell-based, human; conditions: 9 hour treatments; 50 μM SB compounds, 2 μM camptothecin (FIGS. 28, 29)
Procedure: 2.0×10^5 RPMI-8226 cells were cultured, in 6-well culture plates, in the presence of the indicated drug concentrations, in a total of 5 mL RPMI-1640 supplemented with 10% FBS. Each well was harvested in its entirety and divided into two identical samples for cytospins.
1.0×10^5 RPMI-8226 cells from each treatment group were loaded into Cyto-funnels and centrifuged at 500 rpm for 4 minutes with medium acceleration. Slides were then fixed through graded methanol in PBS (100%, 5 minutes; 80%, 5 minutes; 50%, 5 minutes), washed for 5 minutes in PBS and stored in PBS at 4° C. until stained.
Cytospun slides were stained with Hematoxylin and Eosin, followed by the nuclear stain, bis-benzamide, rinsed and mounted according to standard staining protocols. Slides were visualized under both brightfield and fluorescent light to generate matched images of the same slide field (see, e.g., FIGS. 28 and 29).

cells = test: Cell morphology change on inhibition of serotonergic signalling; format: cell-based; conditions: after 24 hours of treatment (FIG. 30)
Procedure: Briefly, cells were incubated with a 5-HTR antagonist (e.g., a selective type 1B inhibitor SD 216641) and the effects of treatment were assessed after 24 hours. […] For instance, detection of cell changes can be assessed using optical instruments (electron and light microscopy, as well as fluorescence activated cell sorting, and the like), or any other device that assesses and detects changes in cell size, density, morphology, and the like. Such devices are well known in the art and are not recounted here.

AKT = test: Western blot of phospho-(ser473)-AKT; format: cell-based, human; conditions: RPMI-8226 cells, 0, 6.25, 12.5, 25 μM for 3 hours (FIG. 37)
Procedure: 5×10^6 cells RPMI-8226 cells were treated with 0, 6.25, 12.5, and 25 μM SB216641 for 3 hours. Cells were lysed in lysis buffer (1% IGEPAL CA-635, 150 mM NaCl, 20 mM Tris-Cl pH 7.4, 1 mM PMSF, 1 mM EGTA, 1 mM NaF, 1 μg/mL aprotinin, 10 μg/mL leupeptin, 1 mM Na2OVa, 5 mM BGP) on ice for 15 minutes followed by centrifugation for 10 min to clear the lysate of membrane fragment. Supernatants were collected and protein concentrations determined with the BioRad Detergent Compatible Kit (Hercules, Calif.).
One-hundred micrograms of protein were loaded into each lane and separated through a 4% SDS-PAGE stacking gel and a 12% SDS-PAGE resolving gel. Proteins were electro-transferred to a 0.2 μm nitrocellulose membrane in transfer buffer (25 mM Tris, 192 mM glycine, 20% methanol, 0.1% SDS). Membranes were immuno-blotted with an anti-phosphoAkt antibody (New England Biolabs, Beverly, Mass.) to the serine-473 phosphorylation residue required for AKT activation and any antibody bound was visualized using an enhanced chemiluminescent system.

RPMI 8226 cells [5] = test: Annexin V / propidium iodide flow cytometry; format: cell-based, human; conditions: RPMI 8226 cells (FIGS. 27, 34)
Procedure: Early apoptotic cells were detected by co-staining cells previously exposed to each experimental condition. Briefly, cells were incubated during a time course in the presence of various concentrations of each experimental or control apoptosis inducing agent as set forth elsewhere herein. After incubation, the cells were washed with ice-cold PBS, stained with Annexin V-Alexa flour 488 and Propidium Iodide (Molecular Probes, Eugene, Oreg.) and analyzed by dual-color flow cytometry. Annexin V^+ and PI^− cells were considered as early apoptotic cells. The known terminal differentiator of myeloma cells, HMBA (hexamethylene-bis-acetamide), and the topoisomerase inhibitor, camtothecin, were used as positive controls for apoptosis at 5 mM and 2 μM, respectively.
Therefore, the degree of apoptosis in a cell population can be ascertained by assessing the presence of annexin-V positive cells and the absence of propidium iodide (PI) staining cells (necrotic cells). […] The extent of apoptosis was determined by analyzing flow cytometry data and generating FACS plots, which were then gated to include only the population of cells which were PI negative (non-necrotic). The degree of annexin-V positive cells was then measured in this PI negative cell population as a measure of apoptosis (FIG. 34).

[6] = In vivo screen for sedation / CNS effects after i.v. injection; set-up: species or system BALB/c mice
Procedure: Both QSS5 and QSS6 were assayed in vivo for the immediate ‘sleep’ effect.

[7] = system: Chronic Lymphocytic Leukemia tumor cells; test: Ex planted bone marrow aspirates from a CLL patient; format: cell-based, human
human 5HT2C-INI receptor = molecular target: T1, human 5HT2C-INI receptor (Homo sapiens, UniProt P28335); conditions: HEK-293 cells, data from Rauser et al. 2001 (FIG. 38); cited from earlier work
T1 sequence (P28335 33-458): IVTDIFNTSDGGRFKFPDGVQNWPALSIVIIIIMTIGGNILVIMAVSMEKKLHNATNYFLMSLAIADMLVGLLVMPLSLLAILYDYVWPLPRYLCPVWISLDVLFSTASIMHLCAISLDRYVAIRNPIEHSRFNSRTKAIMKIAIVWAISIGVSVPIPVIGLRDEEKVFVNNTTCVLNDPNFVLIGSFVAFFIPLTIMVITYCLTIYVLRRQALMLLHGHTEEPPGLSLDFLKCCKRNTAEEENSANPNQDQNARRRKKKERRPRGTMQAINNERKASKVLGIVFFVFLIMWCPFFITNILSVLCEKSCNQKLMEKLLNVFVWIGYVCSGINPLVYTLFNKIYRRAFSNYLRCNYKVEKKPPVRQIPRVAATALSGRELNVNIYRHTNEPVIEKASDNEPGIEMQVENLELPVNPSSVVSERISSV

COc1ccc(NC(=O)c2ccc(-c3ccc(-c4noc(C)n4)cc3C)cc2)cc1OCCN(C)C [SB 216641]
activation / proliferative response [1]: complete inhibition of the activation response
IC50 ([1]; ConA stimulation, read-out: apparent IC50): ~200 nM
activation / proliferative response ([2]; allogeneic stimulation, harvest 120 hours, drug titration (FIGS. 7B, 8B, 9B)): complete inhibition of the activation response
IC50 ([2]; allogeneic stimuli (weaker signal strength), read-out: apparent IC50): ~50 nM
growth / proliferation of RPMI 8226 cells [3]: completely inhibited the growth of the cancer cells
DNA laddering (RPMI 8226 cells [4]): increase in DNA laddering over control cell extracts
chromatin condensation / fragmentation (apoptosis) (RPMI-8226 cells): Extensive chromatin condensation and nuclear fragmentation; also recorded: induced programmed cell death comparable to that induced by the topoisomerase I inhibitor, camptothecin
change in cell morphology (cells): an increase in cell size
phospho-(ser473)-AKT level (AKT): down-regulates the activity of AKT
phospho-(ser473)-AKT level (AKT; listed as SB216641): dose dependant decrease in phosphor-(ser473)-AKT

OCCN1CCN(CCCN2c3ccccc3Sc3ccc(C(F)(F)F)cc32)CC1 [Fluphenazine]
activation / proliferative response [1]: dramatic and dose-dependent decrease in proliferation
in vitro activation / proliferation of (helper) T cells ([1]; in vitro): inhibits T cell responses
DNA laddering (RPMI 8226 cells [4]): increase in DNA laddering over control cell extracts
apoptosis, annexin-V positive / PI negative cells (RPMI 8226 cells [5]): significantly greater degree of apoptosis than any of the control cell populations
duration of sleep ([6]; 15 mg/kg i.v. tail vein, BALB/c mice): approximately 10 hours
sedation / abnormal behavior ([6]; 15 mg/kg i.v. tail vein, BALB/c mice, observed over 72 hour period): instantly sedated
sedative effect ([6]; intravenous injection in an animal): strong sedative, inducing sleep in an animal before the needle is withdrawn from the vein
tumor cell burden [7]: reduces the tumor cell burden
inverse agonism / inhibition of 5-HT 2C receptor (human 5HT2C-INI receptor): potent inverse agonist; also recorded: effective inhibitor (inverse agonist)
